Test results: ChEMBL document CHEMBL1201862, “PubChem BioAssay data set” (2004)
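Results reflect a 48-hour exposure of cells in 96-well plates to compound at five concentrations. Abbreviation: GI50, concentration required for 50% inhibition of growth.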 The source made the active and inactive calls. No stated cut-off is given here; in the data, active = GI50 up to about 1.1 µM and inactive = higher. Residues, ends and D or L forms follow the SMILES beside them.

Experiments:
Experiment in all cases: NCI tumour cell line growth inhibition, 48 h
BT-549 = tested on: BT-549
DLD-1 = tested on: DLD-1
DMS-114 = tested on: DMS-114
KM-20L2 = tested on: KM-20L2
HOP-18 = tested on: HOP-18
LXFL 529 = tested on: LXFL 529
M19-MEL = tested on: M19-MEL
RXF 631 = tested on: RXF 631
XF498 = tested on: XF498

SMILES	GI50 (BT-549)	GI50 (DMS-114)	GI50 (KM-20L2)	GI50 (HOP-18)	GI50 (M19-MEL)	other results
Cc1nc2c(nc1C)-c1c(c3c(n1C)C(=O)CCC3)C(=O)C2=O	0.0259 µM (active)	–	–	–	–	–
Cn1cnc(CCc2ccccc2)n1	–	> 100 µM (inactive)	> 100 µM (inactive)	> 100 µM (inactive)	> 100 µM (inactive)	GI50 (DLD-1): > 100 µM (inactive); GI50 (LXFL 529): > 100 µM (inactive)
CC(C)c1cc(C(C)C)c(S(=O)(=O)NN)c(C(C)C)c1	–	> 100 µM (inactive)	> 100 µM (inactive)	> 100 µM (inactive)	> 100 µM (inactive)	GI50 (DLD-1): > 100 µM (inactive)
CCN1C(=O)c2ccccc2C1(O)c1ccc(Cl)cc1 (centres undefined)	> 100 µM (inactive)	–	–	–	–	–
COc1cccc(C2c3cc4c(cc3OC3COC(=O)C32)OCO4)c1OC (centres undefined)	> 100 µM (inactive)	–	–	–	–	–
CSc1ncnc2c1cnn2Cc1cn(COCCO)nn1	> 100 µM (inactive)	–	–	–	–	–
CCn1c(-c2ccc(OC)cc2)nc2c1C(=O)c1ccccc1C2=O	67.6 µM (inactive)	–	–	–	–	–
CC1(CNCc2ccccc2)CC(CCc2ccccc2)N(C(=O)c2ccc([N+](=O)[O-])cc2)C1Cc1ccc(O)cc1 (centres undefined)	16.1 µM (inactive)	–	–	–	–	–
CCOC(=O)c1c2ccc(/C=C/c3ccccc3)ccc-2c(C(=O)OCC)c1N	–	> 100 µM (inactive)	> 100 µM (inactive)	> 100 µM (inactive)	> 100 µM (inactive)	GI50 (RXF 631): > 100 µM (inactive); GI50 (DLD-1): > 100 µM (inactive); GI50 (LXFL 529): 78.7 µM (inactive)
COCCOCCOC1=CC(=O)c2c(O)ccc(O)c2C1=O	1.79 µM (inactive)	–	–	–	–	–
Nc1ncnc2c1ncn2[C@@H]1C[C@H](NO)[C@@H](O)[C@H]1O	> 100 µM (inactive)	–	–	–	–	–
Oc1ccccc1/C=N/c1nc2cc3sc(/N=C/c4ccccc4O)nc3cc2s1	> 61.8 µM (inactive)	–	–	–	–	–
COC(=O)CCC1=NCC(C)(C)O1	> 10 µM (inactive)	–	–	–	–	–
N#Cc1ccc(Sc2nc3ccccc3[nH]2)cc1	–	65 µM (inactive)	–	> 100 µM (inactive)	86.1 µM (inactive)	GI50 (DLD-1): > 100 µM (inactive); GI50 (LXFL 529): 46.7 µM (inactive)
C[N+](C)(C)CC1CCC/C1=N/O (centres undefined)	–	20 µM (inactive)	17.8 µM (inactive)	> 100 µM (inactive)	41 µM (inactive)	GI50 (DLD-1): > 100 µM (inactive); GI50 (XF498): 1.68 µM (inactive); GI50 (LXFL 529): 54.5 µM (inactive)
COC(=O)[C@@H]1CCCCC[C@H]2C(CO)=C(C)C(=O)C12 (some centres undefined)	–	> 100 µM (inactive)	> 100 µM (inactive)	> 100 µM (inactive)	> 100 µM (inactive)	GI50 (DLD-1): > 100 µM (inactive); GI50 (XF498): > 100 µM (inactive); GI50 (LXFL 529): > 100 µM (inactive)
Cc1cc(C)nc(NS(=O)(=O)c2ccc(NC(=O)c3ccc(Cl)c4c(Nc5ccc(S(=O)(=O)Nc6cc(C)on6)cc5)c5ccccc5nc34)cc2)n1	–	17.9 µM (inactive)	18.5 µM (inactive)	15.7 µM (inactive)	21 µM (inactive)	GI50 (RXF 631): 17.7 µM (inactive); GI50 (DLD-1): 16 µM (inactive); GI50 (LXFL 529): 16.8 µM (inactive)

SMILES	GI50 (BT-549)	GI50 (DMS-114)	GI50 (KM-20L2)	GI50 (HOP-18)	GI50 (M19-MEL)	other results
CC(=O)NNc1nc(C)c(C(=O)NNC(=O)C(=O)Nc2c(Cl)cc([N+](=O)[O-])cc2Cl)s1	–	32.6 µM (inactive)	31.9 µM (inactive)	–	46.6 µM (inactive)	GI50 (LXFL 529): 33.7 µM (inactive)
CNC(=O)C1(N)c2ccccc2C=Cc2ccccc21	> 100 µM (inactive)	–	–	–	–	–
CCn1c(=O)c2c3ccc(O)cc3oc2c2ccc(O)cc21	26.1 µM (inactive)	–	–	–	–	–
CCN(CC)CCN1CCN=c2c3cc(OC)ccc3n3cnc4ccc1c2c43	1.27 µM (inactive)	–	–	–	–	–
O=C1C[C@@H]2[C@@H](C=CC23CC3)N1O	–	–	> 100 µM (inactive)	> 100 µM (inactive)	> 100 µM (inactive)	GI50 (DLD-1): > 100 µM (inactive); GI50 (LXFL 529): > 100 µM (inactive)
CC1(C)CC2C=C(C=O)C3(C=O)CC3(C)C2C1 (centres undefined)	1.81 µM (inactive)	–	–	–	–	–
CC(NC(=N)N)C(=O)O (centres undefined)	> 100 µM (inactive)	–	–	–	–	–
CCOP(=O)(/C=C\n1ccc(N)nc1=O)OCC	> 100 µM (inactive)	–	–	–	–	–
O=C1C2=Cc3ccccc3OC2(O)Oc2cc(O)ccc21 (centres undefined)	> 100 µM (inactive)	–	–	–	–	–
C=C(Cl)C(Cl)(CBr)CCCC(C)(C)Cl (centres undefined)	52 µM (inactive)	–	–	–	–	–
CCOC(=O)c1sc(N/N=C2\NC(=O)/C(=C/c3ccc([N+](=O)[O-])cc3)S2)nc1C	24 µM (inactive)	–	–	–	–	–
CC(=O)O[C@@H]1C2C(=O)OC(=O)C2C2CCC[C@]23O[C@H]13 (some centres undefined)	–	> 100 µM (inactive)	> 100 µM (inactive)	> 100 µM (inactive)	> 100 µM (inactive)	GI50 (DLD-1): > 100 µM (inactive); GI50 (LXFL 529): > 100 µM (inactive)
C=C1C(OC(=O)/C=C/c2ccccc2)CC(OC(C)=O)C2(C)C1CC1CC(OC(C)=O)C(C)=C(C(OC(C)=O)C2OC(C)=O)C1(C)C (centres undefined)	–	5.97 µM (inactive)	> 100 µM (inactive)	> 100 µM (inactive)	> 100 µM (inactive)	GI50 (RXF 631): > 100 µM (inactive); GI50 (LXFL 529): 8.36 µM (inactive)
CC(=O)OCC1=C(C)C(OC(=O)C(OC(C)=O)[C@@H](NC(=O)c2ccccc2)c2ccccc2)CCC1(C)C (some centres undefined)	> 100 µM (inactive)	–	–	–	–	–
O=C(/C=C/c1ccc(O)c(O)c1)NC(COC(=O)/C=C/c1ccc(O)c(O)c1)C(=O)O (centres undefined)	> 100 µM (inactive)	–	–	–	–	–
CC(=O)NC(CO)C(=O)NC(Cc1ccc(O)cc1)C(=O)NCC(N)=O (stereo not drawn) (Ac-Ser-Tyr-Gly-NH2; configuration not given here)	> 100 µM (inactive)	–	–	–	–	–
C/C(=C\COc1ccc2ccc(=O)oc2c1)C1=CC(=O)C(C)(C)O1 [GEIPARVARIN]	3.69 µM (inactive)	4.19 µM (inactive)	3.39 µM (inactive)	66.7 µM (inactive)	4.61 µM (inactive)	GI50 (DLD-1): 2.26 µM (inactive); GI50 (XF498): 4.1 µM (inactive)
